The record followed here is patent US7476679B2, “Octahydroisoquinoline compounds as opioid receptor modulators” (Research Triangle Institute, priority 2005, dated 2009).

The structures appear in SMILES notation. Where two headings read alike, the source gives them in different places.

Assay type in all cases: biochemical
Assay [1] concerns the target T1, human kappa opioid receptor (Homo sapiens, UniProt P41145).
T1 construct: expressed in transfected cells; host or cells: CHO cells (membrane homogenates)
The experiment in a line: Inhibition of agonist (U69,593) stimulated [35S]GTPγS binding, apparent affinity (Ke). As to conditions: for δ/κ / μ/κ: ratio of Ke values; for δ/κ: δ over κ; for μ/κ: μ over κ. As for the experimental part:
(§1) Determination of apparent affinity (Ke). The ability of a single concentration of test compound to shift an agonist dose response curve to the right was used to determine its Ke. Agonist activity was determined using [^35S]GTP-γ-S binding in CHO cell membrane homogenates expressing either the human mu, kappa or delta opioid receptor. The subtype selective agonists (D-Ala^2, MePhe^4, Gly-ol^5)enkephalin (DAMGO, mu receptor), D-Pen2,D-Pen5]-enkephalin (DPDPE, delta receptor) or U69,593 (kappa receptor) were run as appropriate. The assays were run in triplicate in 1.4 mL polypropylene tubes (Matrix Technologies, Hudson, N.H.) in 96-well format. Each assay tube contained membrane homogenate, one of seven concentrations of agonist or agonist+test compound, 0.1 nM [^35S]GTP-γ-S and 10 μM GDP in a 50 mM HEPES buffer (pH 7.4). Basal [^35S]GTP-γ-S binding was determined in samples without agonist or test compound. All samples were incubated at room temperature for one hour after which bound radioligand was separated from free via rapid vacuum filtration over GF-B filters with a Brandel Scientific (Gaithersburg, Md.) 96-well harvester. Bound radioactivity was determined with a TopCount 12-detector instrument (Packard Instruments) using standard scintillation counting techniques. The binding data from each assay plate were normalized to basal binding prior to analysis. The EC50s were calculated from a three-parameter logistic curve fit to the data with Prism (version 3.0, GraphPad Software, Inc., San Diego, Calif.).
A general note: Binding of GTPγS marks nucleotide exchange on a G protein.

The target of a further assay is T2, human mu opioid receptor (Homo sapiens, UniProt P35372).
T2 construct: expressed in transfected cells; host or cells: CHO cells (membrane homogenates)
The experiment in a line: Inhibition of agonist (DAMGO) stimulated [35S]GTPγS binding, apparent affinity (Ke). As for the experimental part:
as §1

The target of assay [2] is T3, human delta opioid receptor (Homo sapiens, UniProt P41143).
T3 construct: expressed in transfected cells; host or cells: CHO cells (membrane homogenates)
The experiment in a line: Inhibition of agonist (DPDPE) stimulated [35S]GTPγS binding, apparent affinity (Ke). As to the method: as §1

Where [3] appears, read: cloned human κ receptor, CHO cell membrane homogenates, agonist U69,593, 10 μM GDP, mean ± SE.
The mark [4] stands for this setting: cloned human μ receptor, CHO cell membrane homogenates, agonist DAMGO, 10 μM GDP, mean ± SE.
Where [5] appears, read: cloned human δ receptor, CHO cell membrane homogenates, agonist DPDPE, 10 μM GDP, mean ± SE.
Where [6] appears, read: cloned human κ receptor, CHO cell membrane homogenates, agonist U69,593, 10 μM GDP, mean ± SE, read-out: κ, U69,593 Ke.
Where [7] appears, read: cloned human μ receptor, CHO cell membrane homogenates, agonist DAMGO, 10 μM GDP, mean ± SE, read-out: μ, DAMGO Ke.

T1 sequence (P41145 whole entry): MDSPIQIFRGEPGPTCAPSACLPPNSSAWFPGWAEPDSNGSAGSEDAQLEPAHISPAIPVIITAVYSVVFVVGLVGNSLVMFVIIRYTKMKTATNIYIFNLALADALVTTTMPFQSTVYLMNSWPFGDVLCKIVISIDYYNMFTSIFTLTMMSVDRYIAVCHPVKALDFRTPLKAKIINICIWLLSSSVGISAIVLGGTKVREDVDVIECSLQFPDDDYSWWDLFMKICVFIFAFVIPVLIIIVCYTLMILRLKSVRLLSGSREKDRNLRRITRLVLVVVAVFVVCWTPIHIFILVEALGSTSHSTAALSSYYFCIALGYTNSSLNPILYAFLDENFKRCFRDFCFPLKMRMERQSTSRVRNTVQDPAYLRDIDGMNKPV
T3 sequence (P41143 whole entry): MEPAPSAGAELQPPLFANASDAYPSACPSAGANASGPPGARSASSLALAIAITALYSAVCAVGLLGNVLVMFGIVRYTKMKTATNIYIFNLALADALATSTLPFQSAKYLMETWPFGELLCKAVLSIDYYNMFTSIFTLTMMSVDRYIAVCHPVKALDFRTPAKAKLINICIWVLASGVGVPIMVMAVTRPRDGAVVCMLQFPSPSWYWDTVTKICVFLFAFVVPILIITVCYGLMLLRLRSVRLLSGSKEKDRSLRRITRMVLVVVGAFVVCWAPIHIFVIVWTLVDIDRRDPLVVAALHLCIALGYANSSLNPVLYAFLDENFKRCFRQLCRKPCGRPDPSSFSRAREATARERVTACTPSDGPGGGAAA
T2 sequence (P35372 whole entry): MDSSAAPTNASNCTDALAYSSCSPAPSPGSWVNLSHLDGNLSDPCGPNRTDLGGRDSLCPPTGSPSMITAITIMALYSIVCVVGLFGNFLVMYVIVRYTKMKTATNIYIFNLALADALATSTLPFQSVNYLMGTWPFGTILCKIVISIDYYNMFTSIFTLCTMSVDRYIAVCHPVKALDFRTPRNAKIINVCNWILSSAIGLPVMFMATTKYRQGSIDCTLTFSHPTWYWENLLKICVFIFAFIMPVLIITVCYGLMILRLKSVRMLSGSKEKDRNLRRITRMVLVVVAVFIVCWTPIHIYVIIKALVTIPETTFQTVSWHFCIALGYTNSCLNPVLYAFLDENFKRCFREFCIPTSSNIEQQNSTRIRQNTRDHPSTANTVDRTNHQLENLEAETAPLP

On to `CC12CCC(NC(=O)c3cc4ccccc4s3)CC1(c1cccc(O)c1)CCN(CCCc1ccccc1)C2` (centres unmarked) [6g], for which the “κ, U69,593 Ke” value in assay [1] (setting [3]) turned out to be 0.46 ± 0.13 nM. Moreover, in assay [1], the δ/κ is on record as 2 and the μ/κ is 25. Besides, the “μ, DAMGO Ke” value at human mu opioid receptor (setting [4]) was found to be 11.3 ± 2.0 nM. Further, the “δ, DPDPE Ke” value in assay [2] (setting [5]) amounted to 1.01 ± 0.22 nM.

With `CC12CCC(NC(=O)CCN3CCc4ccccc4C3)CC1(c1cccc(O)c1)CCN(CCCc1ccccc1)C2` (centres unmarked) [6e, 3-(3,4-Dihydro-1H-isoquinolin-2-yl)-N-(4a-(3-hydroxyphenyl)-8a-methyl-2-(3-phenylpropyl)octahydroisoquinolin-6-yl]propionamide], the figures for the Kb (in assay [1] (setting [6]); at human mu opioid receptor (setting [7]); in assay [2]) were 0.22 ± 0.02 nM, 9.82 ± 3.7 nM and 4.56 ± 1.2 nM, respectively. Besides, the δ/κ in assay [1] came out at 21. Also, in assay [1], the μ/κ came to 45.

For `CC12CCC(NC(=O)CCN3CCCCC3)CC1(c1cccc(O)c1)CCN(CCCc1ccccc1)C2` (centres unmarked) [6d, N-(4a-(3-Hydroxyphenyl)-8a-methyl-2-(3-phenylpropyl)octahydroisoquinolin-6-yl]-3-piperidin-1-yl-propionamide], the Kb in assay [1] (setting [6]) stood at 0.27 ± 0.08 nM; at human mu opioid receptor (setting [7]) it was 41.7 ± 7.8 nM; in assay [2], 12.3 ± 3.1 nM. In assay [1], the δ/κ came to 46. Further, the μ/κ in assay [1] worked out at 154.

Take `CC12CCC(NC(=O)C3(c4ccccc4)CCCC3)CC1(c1cccc(O)c1)CCN(CCCc1ccccc1)C2` (centres unmarked) [6f, 1-Phenylcyclopentanecarboxylic Acid [4a-(3-Hydroxyphenyl)-8a-methyl-2-(3-phenylpropyl)octahydroisoquinolin-6-yl]amide]: the Kb in assay [1] (setting [6]) was 1.93 ± 0.48 nM; at human mu opioid receptor (setting [7]), 1.46 ± 0.15 nM; in assay [2] it was 6.46 ± 2.3 nM. In assay [1], the δ/κ was 3. Also, in assay [1], the μ/κ was found to be 0.8.

For the compound `CN1CCC2(c3cccc(O)c3)CCCCC2(C)C1` (centres unmarked) [6a, N-Methyl-4a-(3-hydroxyphenyl)-8a-methyloctahydroisoquinoline], in assay [1], the Kb came to 3.37 ± 0.47 nM, the δ/κ turned out to be 141 and the μ/κ came out at 29. The Kb at human mu opioid receptor was 99.4 ± 28.3 nM. Besides, the Kb in assay [2] (cloned human δ receptor, CHO cell membrane homogenates, agonist DPDPE, 10 μM GDP, mean ± SE, read-out: δ, DPDPE Ke) stood at 477 ± 137 nM.

Regarding `CC12CCCCC1(c1cccc(O)c1)CCN(CCc1ccccc1)C2` (centres unmarked) [6b, N-Phenethyl-4a-(3′-hydroxyphenyl)-8a-methyloctahydroisoquinoline], the Kb amounted to 2.84 ± 0.97 nM in assay [1] (setting [6]), 0.84 ± 0.22 nM at human mu opioid receptor (setting [7]) and 18.9 ± 5.2 nM in assay [2]. In assay [1], the δ/κ stood at 7. Moreover, the μ/κ in assay [1] is 0.3.

For the compound `CC12CCCCC1(c1cccc(O)c1)CCN(CCCc1ccccc1)C2` (centres unmarked) [6c, N-(3-Phenpropyl)-4a-(3-hydroxyphenyl)-8a-methyloctahydroisoquinoline], the “κ, U69,593 Ke” value in assay [1] (setting [3]) was 1.03 ± 0.14 nM. Also, in assay [1], the δ/κ was found to be 12 and the μ/κ came to 0.8. In addition, the “μ, DAMGO Ke” value at human mu opioid receptor (setting [4]) was determined as 0.80 ± 0.10 nM. For the same compound, the “δ, DPDPE Ke” value in assay [2] (setting [5]) is 12.4 ± 2.9 nM.
